Values quoted from earlier work, collected in patent US11124883B2, “Method for inhibiting metal corrosion using a benzimidazole-containing composition” (priority 2017, dated 2021).

Details: at 20° C., according to DrugBank

water solubility: about 20 g/L
Compound: c1ccc2[nH]cnc2c1 [unsubstituted benzimidazole, benzimidazole]
